Values belong to the molecule of their own block, whether it stands above or below them. The source made the active and inactive calls. The calls are words filed in the database; no cut-off is given here.
Legend:
[1] = biological target: T1, 17-beta-hydroxysteroid dehydrogenase type 1 (Homo sapiens, UniProt P14061); experiment: (§1) Inhibition of human placental cytosolic 17beta-HSD1
T1 sequence (P14061 whole entry): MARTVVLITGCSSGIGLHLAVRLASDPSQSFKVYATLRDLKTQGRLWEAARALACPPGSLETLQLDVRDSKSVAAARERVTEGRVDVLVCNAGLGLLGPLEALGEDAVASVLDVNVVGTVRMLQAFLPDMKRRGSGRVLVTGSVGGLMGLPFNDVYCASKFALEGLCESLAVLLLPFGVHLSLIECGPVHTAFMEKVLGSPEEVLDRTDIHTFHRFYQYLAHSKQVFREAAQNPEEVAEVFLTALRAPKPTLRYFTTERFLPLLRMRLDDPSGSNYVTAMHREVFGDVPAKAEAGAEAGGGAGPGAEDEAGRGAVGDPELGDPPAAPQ

[2] = biological target: T2, Estrogen receptor (Homo sapiens) (UniProt P03372); experiment: Displacement of [2,4,6,7-3H]17beta-estradiol from human recombinant ERalpha receptor relative to 17-beta-estradiol
T2 sequence (whole entry): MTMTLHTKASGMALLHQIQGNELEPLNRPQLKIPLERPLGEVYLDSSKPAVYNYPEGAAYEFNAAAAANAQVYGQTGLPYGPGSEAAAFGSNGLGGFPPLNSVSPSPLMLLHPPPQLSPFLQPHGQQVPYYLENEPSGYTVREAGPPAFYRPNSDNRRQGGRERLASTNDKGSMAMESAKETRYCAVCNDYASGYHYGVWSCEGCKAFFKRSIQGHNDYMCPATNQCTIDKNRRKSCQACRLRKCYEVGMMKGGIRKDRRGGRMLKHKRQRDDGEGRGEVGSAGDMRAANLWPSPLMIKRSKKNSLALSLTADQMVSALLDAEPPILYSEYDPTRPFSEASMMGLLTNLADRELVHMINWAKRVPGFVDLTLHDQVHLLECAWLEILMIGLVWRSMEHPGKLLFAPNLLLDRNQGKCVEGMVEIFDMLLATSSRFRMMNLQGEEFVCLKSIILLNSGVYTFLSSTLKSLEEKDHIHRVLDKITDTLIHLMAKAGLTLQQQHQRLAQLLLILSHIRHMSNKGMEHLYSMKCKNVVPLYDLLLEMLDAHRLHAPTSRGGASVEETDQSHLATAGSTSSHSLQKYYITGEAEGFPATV

[3] = biological target: Estrogen receptor beta (Homo sapiens) (UniProt Q92731); experiment: Displacement of [2,4,6,7-3H]17beta-estradiol from human recombinant ERbeta receptor relative to 17-beta-estradiol
Chain of Estrogen receptor beta (Homo sapiens) (Q92731 whole entry): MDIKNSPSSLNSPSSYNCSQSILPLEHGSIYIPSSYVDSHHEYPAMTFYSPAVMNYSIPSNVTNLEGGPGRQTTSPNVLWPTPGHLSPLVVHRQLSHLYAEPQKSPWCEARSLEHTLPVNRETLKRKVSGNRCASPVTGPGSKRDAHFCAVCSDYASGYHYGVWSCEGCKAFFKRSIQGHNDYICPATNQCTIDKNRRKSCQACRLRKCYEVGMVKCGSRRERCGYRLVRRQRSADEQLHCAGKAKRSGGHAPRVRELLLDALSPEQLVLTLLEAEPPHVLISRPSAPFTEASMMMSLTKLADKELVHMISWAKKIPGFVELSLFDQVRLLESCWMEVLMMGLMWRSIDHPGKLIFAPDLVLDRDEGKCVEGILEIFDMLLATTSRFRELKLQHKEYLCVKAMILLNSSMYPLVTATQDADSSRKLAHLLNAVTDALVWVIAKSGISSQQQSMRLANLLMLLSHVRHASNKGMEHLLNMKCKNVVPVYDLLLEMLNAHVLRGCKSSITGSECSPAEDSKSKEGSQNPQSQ

[4] = system: Rattus norvegicus; experiment: AUC (0 to Tlast) life in Wistar rat at 10 mg/kg, po by cassette dosing; type: ADME, organism-based, Plasma; parameters: dose 10 mg/kg, route oral; settings: in vivo
[5] = system: Rattus norvegicus; experiment: Tlast in Wistar rat at 10 mg/kg, po by cassette dosing; type: ADME, organism-based; parameters: dose 10 mg/kg, route oral; settings: in vivo
[6] = Half life in Wistar rat at 10 mg/kg, po by cassette dosing; type: ADME, organism-based; parameters: dose 10 mg/kg, route oral; settings: in vivo, read-out: beta t1/2 (converted)
[7] = system: Rattus norvegicus; experiment: Clast in Wistar rat at 10 mg/kg, po by cassette dosing; type: ADME, organism-based; parameters: dose 10 mg/kg, route oral; settings: in vivo
[8] = Cmax in Wistar rat at 10 mg/kg, po by cassette dosing; type: ADME, organism-based; parameters: dose 10 mg/kg, route oral; settings: in vivo
[9] = Tmax in Wistar rat at 10 mg/kg, po by cassette dosing; type: ADME, organism-based; parameters: dose 10 mg/kg, route oral; settings: in vivo
[10] = in vitro; settings: human, Caco-2
Description: Apparent permeability across human Caco-2 cells at 50 uM

[11] = biological target: T3, 17-beta-hydroxysteroid dehydrogenase type 1 (Homo sapiens) (UniProt P14061); experiment: as §1
T3 sequence (whole entry): T1 sequence (P14061 whole entry)

[12] = biological target: Cytochrome P450 2C19 (Homo sapiens, UniProt P33261); experiment: Inhibition of human hepatic CYP2C19; type: ADME
Chain of Cytochrome P450 2C19 (P33261 whole entry): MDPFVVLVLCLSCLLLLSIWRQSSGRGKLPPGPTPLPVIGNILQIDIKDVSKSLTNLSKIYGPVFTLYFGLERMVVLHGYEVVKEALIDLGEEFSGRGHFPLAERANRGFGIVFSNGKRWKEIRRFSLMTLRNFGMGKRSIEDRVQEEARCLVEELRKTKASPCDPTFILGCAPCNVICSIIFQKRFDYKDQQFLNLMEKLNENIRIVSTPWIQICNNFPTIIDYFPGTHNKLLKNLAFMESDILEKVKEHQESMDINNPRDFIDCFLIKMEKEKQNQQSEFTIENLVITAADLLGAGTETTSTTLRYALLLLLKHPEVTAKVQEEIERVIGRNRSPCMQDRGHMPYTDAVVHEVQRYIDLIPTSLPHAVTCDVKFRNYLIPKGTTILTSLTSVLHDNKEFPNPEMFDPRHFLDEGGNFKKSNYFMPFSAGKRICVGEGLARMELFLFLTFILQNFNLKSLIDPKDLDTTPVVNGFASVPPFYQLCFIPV

[13] = system: T47D; experiment: Estrogenic activity in human ER expressing T47D cells assessed as stimulation of cell proliferation at 100 nM by MTT assay; type: functional, cell-based
[14] = in vitro; settings: Sprague-Dawley, rat, liver microsomes
[15] = biological target: T4, Cytochrome P450 2B6 (Homo sapiens, UniProt P20813); experiment: Inhibition of human hepatic CYP2B6; type: ADME
T4 sequence (P20813 whole entry): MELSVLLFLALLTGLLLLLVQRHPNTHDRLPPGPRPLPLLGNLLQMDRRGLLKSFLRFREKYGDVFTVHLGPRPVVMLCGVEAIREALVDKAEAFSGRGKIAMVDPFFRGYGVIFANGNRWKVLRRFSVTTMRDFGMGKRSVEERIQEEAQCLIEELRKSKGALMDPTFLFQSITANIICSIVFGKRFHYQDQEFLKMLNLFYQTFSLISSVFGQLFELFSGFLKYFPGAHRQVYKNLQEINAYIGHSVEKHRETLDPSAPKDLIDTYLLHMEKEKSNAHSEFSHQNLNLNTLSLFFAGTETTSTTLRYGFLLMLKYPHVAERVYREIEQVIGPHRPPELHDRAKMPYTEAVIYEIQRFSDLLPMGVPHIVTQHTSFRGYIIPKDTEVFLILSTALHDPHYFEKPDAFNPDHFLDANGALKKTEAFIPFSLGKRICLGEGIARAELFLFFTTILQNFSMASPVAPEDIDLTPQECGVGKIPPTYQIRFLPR

[16] = biological target: Cytochrome P450 2D6 (Homo sapiens, UniProt P10635); experiment: Inhibition of human hepatic CYP2D6; type: ADME
Chain of Cytochrome P450 2D6 (P10635 whole entry): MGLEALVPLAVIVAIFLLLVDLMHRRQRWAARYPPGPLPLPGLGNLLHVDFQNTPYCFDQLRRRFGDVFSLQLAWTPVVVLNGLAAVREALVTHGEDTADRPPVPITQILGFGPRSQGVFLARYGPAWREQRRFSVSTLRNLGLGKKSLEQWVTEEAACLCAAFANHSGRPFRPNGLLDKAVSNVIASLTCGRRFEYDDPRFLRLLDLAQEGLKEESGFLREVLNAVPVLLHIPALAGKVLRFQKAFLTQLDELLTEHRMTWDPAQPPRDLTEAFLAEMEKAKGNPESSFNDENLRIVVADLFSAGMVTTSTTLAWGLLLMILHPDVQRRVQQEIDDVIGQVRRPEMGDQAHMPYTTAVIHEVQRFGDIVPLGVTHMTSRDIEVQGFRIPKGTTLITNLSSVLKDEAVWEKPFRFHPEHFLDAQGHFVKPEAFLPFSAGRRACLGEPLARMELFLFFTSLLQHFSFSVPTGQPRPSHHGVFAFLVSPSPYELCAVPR

[17] = in vitro; settings: Sprague-Dawley, rat, liver microsomes; remark: listed apart in the source
[18] = biological target: T5, Cytochrome P450 1A2 (Homo sapiens, UniProt P05177); experiment: Inhibition of human hepatic CYP1A2; type: ADME
T5 sequence (P05177 whole entry): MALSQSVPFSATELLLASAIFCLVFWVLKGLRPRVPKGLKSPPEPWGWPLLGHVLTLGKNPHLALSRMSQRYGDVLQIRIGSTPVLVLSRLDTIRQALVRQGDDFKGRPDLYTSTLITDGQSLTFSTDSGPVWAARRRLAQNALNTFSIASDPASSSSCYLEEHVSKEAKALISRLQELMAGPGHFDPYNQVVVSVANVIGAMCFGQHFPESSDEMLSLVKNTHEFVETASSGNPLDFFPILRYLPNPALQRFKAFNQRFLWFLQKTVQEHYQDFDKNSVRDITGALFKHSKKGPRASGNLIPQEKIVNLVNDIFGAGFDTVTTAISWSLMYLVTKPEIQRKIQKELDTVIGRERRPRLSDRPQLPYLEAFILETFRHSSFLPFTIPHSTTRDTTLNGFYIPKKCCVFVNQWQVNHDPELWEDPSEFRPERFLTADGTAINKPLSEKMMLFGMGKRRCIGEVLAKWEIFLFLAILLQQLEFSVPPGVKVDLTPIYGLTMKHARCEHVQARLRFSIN

[19] = biological target: Cytochrome P450 2C9 (Homo sapiens, UniProt P11712); experiment: Inhibition of human hepatic CYP2C9; type: ADME
Chain of Cytochrome P450 2C9 (P11712 whole entry): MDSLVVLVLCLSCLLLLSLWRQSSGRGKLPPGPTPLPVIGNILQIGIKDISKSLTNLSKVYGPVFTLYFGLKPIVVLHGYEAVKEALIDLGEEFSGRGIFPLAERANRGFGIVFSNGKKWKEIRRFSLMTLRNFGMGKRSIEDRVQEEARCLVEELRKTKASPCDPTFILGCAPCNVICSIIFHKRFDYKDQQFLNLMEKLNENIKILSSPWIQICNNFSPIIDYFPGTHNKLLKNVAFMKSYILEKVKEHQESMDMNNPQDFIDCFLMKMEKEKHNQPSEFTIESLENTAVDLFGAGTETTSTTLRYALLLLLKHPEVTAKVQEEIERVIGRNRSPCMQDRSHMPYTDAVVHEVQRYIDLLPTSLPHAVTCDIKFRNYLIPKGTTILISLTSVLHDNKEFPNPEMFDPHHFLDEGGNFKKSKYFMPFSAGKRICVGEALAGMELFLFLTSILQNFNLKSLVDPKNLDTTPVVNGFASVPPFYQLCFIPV

[20] = biological target: T6, 17-beta-hydroxysteroid dehydrogenase type 2 (Homo sapiens, UniProt P37059); experiment: Inhibition of human placental microsomal 17beta-HSD2
T6 sequence (P37059 whole entry): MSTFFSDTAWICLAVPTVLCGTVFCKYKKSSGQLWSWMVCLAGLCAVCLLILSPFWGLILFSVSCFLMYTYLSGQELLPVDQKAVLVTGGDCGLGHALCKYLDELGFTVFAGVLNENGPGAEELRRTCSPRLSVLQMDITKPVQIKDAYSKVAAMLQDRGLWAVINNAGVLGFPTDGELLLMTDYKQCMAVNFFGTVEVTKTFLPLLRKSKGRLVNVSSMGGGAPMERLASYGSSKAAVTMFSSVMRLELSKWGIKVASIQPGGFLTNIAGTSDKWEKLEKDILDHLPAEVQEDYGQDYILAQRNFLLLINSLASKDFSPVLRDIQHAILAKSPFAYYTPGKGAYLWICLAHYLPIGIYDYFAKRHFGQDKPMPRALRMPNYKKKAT

[21] = biological target: Cytochrome P450 3A4 (Homo sapiens, UniProt P08684); experiment: Inhibition of human hepatic CYP3A4
Chain of Cytochrome P450 3A4 (P08684 whole entry): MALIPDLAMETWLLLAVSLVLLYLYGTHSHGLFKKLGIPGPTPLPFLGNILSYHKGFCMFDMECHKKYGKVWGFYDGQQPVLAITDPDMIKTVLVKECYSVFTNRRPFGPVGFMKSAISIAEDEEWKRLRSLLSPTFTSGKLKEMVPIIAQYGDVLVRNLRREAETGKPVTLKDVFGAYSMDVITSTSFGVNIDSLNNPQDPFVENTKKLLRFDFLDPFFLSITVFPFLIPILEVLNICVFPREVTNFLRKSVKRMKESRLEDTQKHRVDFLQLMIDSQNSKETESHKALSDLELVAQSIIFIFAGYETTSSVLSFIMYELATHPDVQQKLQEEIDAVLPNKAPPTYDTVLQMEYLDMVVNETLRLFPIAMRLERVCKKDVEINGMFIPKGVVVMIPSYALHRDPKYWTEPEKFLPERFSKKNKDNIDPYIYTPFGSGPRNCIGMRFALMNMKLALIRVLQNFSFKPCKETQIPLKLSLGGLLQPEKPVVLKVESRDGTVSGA

Structure (SMILES): Oc1ccc(-c2cccc(-c3cccc(O)c3)c2)cc1
- IC50 [1]: > 1000 nM

Structure (SMILES): Oc1cccc(-c2nnc(-c3cccc(O)c3)nn2)c1
- AUC [4]: 1200 ng·h/mL
- tz [5]: 10 h
- half-life [6]: 1.2 h
- Cz [7]: 54 ng/mL
- Cmax [8]: 106 ng/mL
- Tmax [9]: 3 h

Structure (SMILES): Oc1ccc(-c2csc(-c3cccc(O)c3)n2)cc1
- IC50 [1]: > 1000 nM

Structure (SMILES): Cn1nc(-c2cccc(O)c2)nc1-c1cccc(O)c1
- Activity [11]: inactive

Structure (SMILES): Oc1cccc(-c2cccs2)c1
- Activity [11]: inactive

Structure (SMILES): Oc1ccc(-c2ccsc2-c2cccc(O)c2)cc1
- IC50 [1]: > 1000 nM

Structure (SMILES): Oc1ccc(-c2nsc(-c3cccc(O)c3)n2)cc1
- IC50 [1]: 413 nM
- Activity [13]: inactive

Structure (SMILES): Oc1ccc(-c2ccsc2-c2ccc(O)cc2)cc1
- Activity [11]: inactive

Structure (SMILES): Oc1ccc(-c2csc(-c3ccc(O)cc3)c2)cc1
- Activity [11]: inactive

Structure (SMILES): Oc1cccc(-c2ccc(-c3cccc(O)c3)cc2)c1
- IC50 [19]: 1900 nM
- RBA [2]: < 0.001%
- RBA [3]: 0.01%
- IC50 [20]: 2260 nM
- IC50 [1]: 173 nM
- IC50 [12]: > 4000 nM
- Activity [13]: inactive
- half-life at 1 µM [14]: 0.378 h
- IC50 [15]: > 4000 nM
- IC50 [21]: 2100 nM
- IC50 [16]: > 4000 nM
- microsomal CLint at 1 µM [17]: 203 µL/min/mg
- IC50 [18]: > 4000 nM
- Papp at 50 µM [10]: 12.5 ×10⁻⁶ cm/s

Structure (SMILES): Oc1cccc(-c2ccc(-c3cccc(O)c3)nc2)c1
- RBA [2]: 0.01%
- RBA [3]: < 0.01%

Structure (SMILES): Oc1ccc(-c2csc(-c3ccc(O)cc3)n2)cc1
- Activity [11]: inactive

Structure (SMILES): Cn1nc(-c2ccc(O)cc2)nc1-c1cccc(O)c1
- Activity [11]: inactive

Continued, in another order:

- IC50 [1]: 185 nM
Structure (SMILES): Oc1cccc(-c2csc(-c3cccc(O)c3)c2)c1

- RBA [2]: < 0.01%
- RBA [3]: 0.01%
- AUC [4]: 99.2 ng·h/mL
- tz [5]: 10 h
- half-life [6]: 1.5 h
- Cz [7]: 6.6 ng/mL
- Cmax [8]: 7.8 ng/mL
- Tmax [9]: 8 h
- Papp at 50 µM [10]: 7.8 ×10⁻⁶ cm/s
Structure (SMILES): Oc1ccc(-c2cnc(-c3cccc(O)c3)s2)cc1

- IC50 [1]: 455 nM
Structure (SMILES): Oc1cccc(-c2csc(-c3cccc(O)c3)n2)c1

- IC50 [1]: 243 nM
- IC50 [12]: > 4000 nM
- half-life at 1 µM [14]: 0.21 h
- IC50 [15]: > 4000 nM
- IC50 [16]: > 4000 nM
- microsomal CLint at 1 µM [17]: 367 µL/min/mg
- IC50 [18]: > 4000 nM
Structure (SMILES): Oc1cccc(-c2cnc(-c3cccc(O)c3)s2)c1
- Activity [13]: inactive

- IC50 [1]: 336 nM
Structure (SMILES): Oc1cccc(-c2nnc(-c3cccc(O)c3)s2)c1

- IC50 [1]: 169 nM
Structure (SMILES): Oc1cccc(-c2nsc(-c3cccc(O)c3)n2)c1

— ChEMBL document CHEMBL1142534, “Design, synthesis, biological evaluation and pharmacokinetics of bis(hydroxyphenyl) substituted azoles, thiophenes, benzenes, and aza-benzenes as potent and selective nonsteroidal inhibitors of 17beta-hydroxysteroid dehydrogenase type 1 (17beta-HSD1)” (J Med Chem, 2008)
